Where two headings read alike, the source gives them in different places.
Columns and labels:
in vitro = conditions: human
PXR = PXR (Homo sapiens (Human), UniProt O75469); experiment: Human PXR activation assay (luciferase reporter gene assay, DPX2 cells); format: cell-based; conditions: human
Protocol: A stably transformed tumor cell line (DPX2) was plated on 96-well microtiter plates. DPX2 cells harbor the human PXR gene (NR112) and a luciferase reporter gene linked to two promoters identified in the human CYP3A4 gene, namely XREM and PXRE. […] The number of viable cells was determined and the reporter gene activity was assessed. Positive control: […]

OCT2 = OCT2 (Homo sapiens (Human), UniProt O15244); experiment: OCT2 inhibition assay (14C-TEA uptake, OCT2-transfected MDCKII cells); format: cell-based
OCT2, sequence (O15244 whole entry): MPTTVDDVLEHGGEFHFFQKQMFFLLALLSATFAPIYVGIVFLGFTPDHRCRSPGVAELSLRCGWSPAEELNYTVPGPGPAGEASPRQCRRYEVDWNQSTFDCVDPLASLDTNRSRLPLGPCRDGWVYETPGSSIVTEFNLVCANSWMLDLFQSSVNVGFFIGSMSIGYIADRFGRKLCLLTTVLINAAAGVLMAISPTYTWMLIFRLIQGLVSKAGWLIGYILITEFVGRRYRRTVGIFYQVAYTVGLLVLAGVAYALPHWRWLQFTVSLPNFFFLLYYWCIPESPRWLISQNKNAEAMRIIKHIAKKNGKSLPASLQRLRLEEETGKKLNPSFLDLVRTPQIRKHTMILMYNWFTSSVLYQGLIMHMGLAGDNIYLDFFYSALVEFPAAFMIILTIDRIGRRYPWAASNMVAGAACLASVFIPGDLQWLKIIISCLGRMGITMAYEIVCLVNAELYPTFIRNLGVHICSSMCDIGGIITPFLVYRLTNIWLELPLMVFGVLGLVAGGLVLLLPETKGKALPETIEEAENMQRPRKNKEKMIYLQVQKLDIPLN
Protocol: On assay day, cells were trypsinized and resuspended in Krebs-Henseleit Buffer (KHB), pH 7.4 at […]. Cells were preincubated for 15 min in assay plate before addition of test compound or substrate. Test compounds were serially diluted in DMSO and then spiked (2 μL) into in 0.4 mL KHB buffer containing wild-type or OCT2-transfected cells and incubated for 10 minutes. Assay was initiated with the addition of 0.1 mL of 100 μM ^14C-TEA in KHB buffer (20 μM final concentration after mixing). The concentration of TEA is based on the Km. After 10 minutes of incubation, the assay mixture was quenched with addition of 0.5 mL of ice-cold 1×PBS buffer. Samples were then centrifuged at 1000 rpm for 5 min and supernatants were removed. Wash steps were repeated four times with ice-cold PBS. Finally, the cell pellets were lysed with 0.2N NaOH and let sit at room temperature for at least 30 min to ensure complete lysis. Samples were then counted on liquid scintillation counter and dpm counts were used to perform the following calculations.

[1] = Pharmacokinetic analysis following intravenous administration to beagle dogs; format: in vivo; conditions: male, dog, 0.5 mg/kg; for MRT / clearance: beagle, in vivo, iv; for Vd: plasma, beagle dogs, IV infusion over 30 min, read-out: Vss
Protocol: Pharmacokinetic analysis was performed on various test compounds following intravenous or oral administration to beagle dogs.
For pharmacokinetic analysis of intravenously administered compounds, the test compounds were formulated in 5% Ethanol, 55% PEG 300, and 40% water at 0.1 mg/mL for IV infusion. For pharmacokinetic analysis of orally administered compounds, the test compounds were formulated as an aqueous suspension in 0.1% Tween 20, 0.5% HPMC LV 100 in Di Water at 1 mg/kg.
Each dosing group consisted of 3 male, non-naïve purebred beagle dogs. At dosing, the animals weighed between 10 to 13 kg. The animals were fasted overnight prior to dose administration and up to 4 hr after dosing. For studies of intravenous administration, the test article was administered to the animals by intravenous infusion over 30 min. The rate of infusion was adjusted according to the body weight of each animal to deliver a dose of 0.5 mg/kg. For studies of oral administration, the test article was administered according to the body weight of each animal to deliver a dose of 1 mg/kg.
For pharmacokinetic analysis of intravenously administered compounds, serial venous blood samples (approximately 1 mL each) were taken from each animal at 0, 0.250, 0.483, 0.583, 0.750, 1.00, 1.50, 2.00, 4.00, 8.00, 12.0, and 24.0 hours after dosing. The blood samples were collected into Vacutainer™ tubes containing EDTA-K2 as the anti-coagulant and were immediately placed on wet ice pending centrifugation for plasma. An LC/MS/MS method was used to measure the concentration of the test compound in plasma. An aliquot of 100 μL of each plasma sample was added to a clean 96 well plate, and 400 μL of cold acetonitrile/internal standard solution (ACN)/(ISTD) was added. After protein precipitation, an aliquot of 110 μL of the supernatant was transferred to a clean 96-well plate and diluted with 300 μL of water. An aliquot of 25 μL of the above solution was injected into a TSQ Quantum Ultra LC/MS/MS system utilizing a Hypersil Gold C18 HPLC column (50×3.0 mm, 5 μm; Thermo-Hypersil Part #25105-053030). An Agilent 1200 series binary pump (P/N G1312A Bin Pump) was used for elution and separation, and an HTS Pal autosampler (LEAP Technologies, Carrboro, N.C.) was used for sample injection. A TSQ Quantum Ultra triple quadrupole mass spectrometer was utilized in selective reaction monitoring mode (Thermo Finnigan, San Jose, Calif.). Liquid chromatography was performed using two mobile phases: mobile phase A contained 1% acetonitrile in 2.5 mM ammonium formate aqueous solution with pH of 3.0, and mobile phase B contained 90% acetonitrile in 10 mM ammonium formate with pH of 4.6. Non-compartmental pharmacokinetic analysis was performed on the plasma concentration-time data. The resulting data are shown in the first three columns of Table 4. In Table 4, CL refers to clearance, which characterizes the rate at which drug is removed from plasma. The lower the clearance of a drug is, the longer the elimination half-life is in the body. Vss refers to the steady state volume of distribution and indicates how well a drug is distributed into the tissues. The larger the Vss is, the longer the elimination half-life is in the body. MRT refers to mean residence time, which is a measure of the average time molecules exist in the body.

[2] = 15 μM, relative to maximum fold induction by 10 or 20 μM rifampicin, DPX2 cells, 24 hours, read-out: % Emax at 15 μM
[3] = MT-4 cells, mock-infected, CC50 nM in MT-4, MT-4 cells, 5 days incubation
[4] = OCT2 mediated uptake of 14C-TEA (20 μM), MDCKII cells, read-out: IC50

PXR, sequence (O75469 whole entry): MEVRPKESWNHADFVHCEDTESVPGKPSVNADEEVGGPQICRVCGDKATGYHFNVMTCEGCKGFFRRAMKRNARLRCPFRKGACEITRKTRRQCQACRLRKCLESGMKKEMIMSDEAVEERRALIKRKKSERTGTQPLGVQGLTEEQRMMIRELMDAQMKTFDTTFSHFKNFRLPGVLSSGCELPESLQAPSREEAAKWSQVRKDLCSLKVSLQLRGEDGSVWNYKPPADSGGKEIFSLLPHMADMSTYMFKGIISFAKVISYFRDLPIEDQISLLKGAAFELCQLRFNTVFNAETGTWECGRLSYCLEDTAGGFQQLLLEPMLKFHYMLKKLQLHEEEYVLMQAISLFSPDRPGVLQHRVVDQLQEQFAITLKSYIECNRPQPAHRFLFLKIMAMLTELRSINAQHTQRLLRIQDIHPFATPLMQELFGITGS

SMILES | CC50 at 5 days (in vitro; CC50 nM in MT-4) [nM] | Emax at 24 h, 15 µM (PXR; [2]) [%] | IC50 (OCT2) [µM] | Emax at 24 h, 15 µM (PXR) [%] | IC50 (OCT2; [4]) [µM] | also measured
O=C(NCc1ccc(F)cc1F)c1cn2c(c(O)c1=O)C(=O)N1C(C2)[C@H]2CC[C@@H]1C2 (stereo in doubt) [Compound 48, (1S,4R,12aS)-N-(2,4-difluorobenzyl)-7-hydroxy-6,8-dioxo-1,2,3,4,6,8,12,12a-octahydro-1,4-methanodipyrido[1,2-a:1′,2′-d]pyrazine-9-carboxamide] | 14000 | 5 | 4.91 | – | – | –
CC1CC2CC1OC1Cn3cc(C(=O)NCc4ccc(F)cc4F)c(=O)c(O)c3C(=O)N21 (single isomer, unassigned) [Compound 40] | 9560 | 0 | 0.204 | – | – | –
C[C@H]1C[C@@H]2C[C@H]1N1C(=O)c3c(O)c(=O)c(C(=O)NCc4c(F)cc(F)cc4F)cn3C[C@@H]21 [Compound 99, (1R,3S,4R,12aR)-7-hydroxy-3-methyl-6,8-dioxo-N-(2,4,6-trifluorobenzyl)-1,2,3,4,6,8,12,12a-octahydro-1,4-methanodipyrido[1,2-a:1′,2′-d]pyrazine-9-carboxamide] | 8480 | – | 1.51 | 17 | – | –
C[C@H]1C[C@@H]2C[C@H]1O[C@H]1Cn3cc(C(=O)NCc4ccc(F)cc4F)c(=O)c(O)c3C(=O)N21 [Compound 39, (2R,3S,5R,3aS)-N-(2,4-difluorobenzyl)-8-hydroxy-3-methyl-7,9-dioxo-2,3,4,5,7,9,13,13a-octahydro-2,5-methanopyrido[1′,2′:4,5]pyrazino[2,1-b][1,3]oxazepine-10-carboxamide] | 12200 | 6 | 0.358 | – | – | –
C[C@@H]1CCO[C@H]2Cn3cc(C(=O)NC4(c5ccc(F)cc5F)CC4)c(=O)c(O)c3C(=O)N12 [Compound 5, (4R,12aS)-N-(1-(2,4-difluorophenyl)cyclopropyl)-7-hydroxy-4-methyl-6,8-dioxo-3,4,6,8,12,12a-hexahydro-2H-[1,3]oxazino[3,2-d]pyrido[1,2-a]pyrazine-9-carboxamide] | – | 32 | – | – | 2.23 | CC50 at 5 days (in vitro; [3]): 10500 nM
O=C(NCc1cc(F)c(F)cc1F)c1cn2c(c(O)c1=O)C(=O)N1[C@H]3CC[C@H](C3)O[C@@H]1C2 [Compound 64, (2R,5S,13aR)-8-hydroxy-7,9-dioxo-N-(2,4,5-trifluorobenzyl)-2,3,4,5,7,9,13,13a-octahydro-2,5-methanopyrido[1′,2′:4,5]pyrazino[2,1-b][1,3]oxazepine-10-carboxamide] | 3330 | – | – | 8 | 0.094 | –
O=C(NCc1c(F)cc(F)cc1F)c1cn2c(c(O)c1=O)C(=O)N1[C@H]3C[C@H](C3)[C@H]1C2 (single isomer, unassigned) [Compound 96] | – | 11 | – | – | 1.36 | CC50 at 5 days (in vitro; [3]): 26600 nM
O=C(NCc1ccc(F)cc1Cl)c1cn2c(c(O)c1=O)C(=O)N1[C@H]3CC[C@H](C3)O[C@@H]1C2 [Compound 63, (2R,5S,13aR)-N-(2-chloro-4-fluorobenzyl)-8-hydroxy-7,9-dioxo-2,3,4,5,7,9,13,13a-octahydro-2,5-methanopyrido[1′,2′:4,5]pyrazino[2,1-b][,3]oxazepine-10-carboxamide] | 3160 | 13 | – | – | 0.042 | –
C[C@@H](NC(=O)c1cn2c(c(O)c1=O)C(=O)N1[C@@H]3CC[C@@H](C3)O[C@H]1C2)c1ccc(F)cc1F [Compound 11, (2S,5R,13aS)-N—((R)-1-(2,4-difluorophenyl)ethyl)-8-hydroxy-7,9-dioxo-2,3,4,5,7,9,13,13a-octahydro-2,5-methanopyrido[1′,2′:4,5]pyrazino[2,1-b][1,3]oxazepine-10-carboxamide] | 10300 | – | 10 | – | – | –
C[C@H](NC(=O)c1cn2c(c(O)c1=O)C(=O)N1[C@@H]3CC[C@@H](C3)O[C@H]1C2)c1ccc(F)cc1F [Compound 13, (2S,5R,13aS)-N—((S)-1-(2,4-difluorophenyl)ethyl)-8-hydroxy-7,9-dioxo-2,3,4,5,7,9,13,13a-octahydro-2,5-methanopyrido[1′,2′:4,5]pyrazino[2,1-b][1,3]oxazepine-10-carboxamide] | 12700 | – | 0.61 | – | – | –
O=C(NCc1ccc(F)cc1F)c1cn2c(c(O)c1=O)C(=O)N1[C@H]3CC[C@H](CC3)[C@H]1C2 [Compound 100, (1R,4R,12aS)-N-(2,4-difluorobenzyl)-7-hydroxy-6,8-dioxo-1,2,3,4,6,8,12,12a-octahydro-1,4-ethanodipyrido[1,2-a:1′,2′-d]pyrazine-9-carboxamide] | – | 45 | – | – | 0.45 | CC50 at 5 days (in vitro; [3]): 11600 nM
O=C(N[C@@H](c1ccc(F)cc1F)C(F)(F)F)c1cn2c(c(O)c1=O)C(=O)N1C(C2)O[C@H]2CC[C@@H]1C2 (stereo partly drawn) [Compound 36, (2S,5R)-N—((S)-1-(2,4-difluorophenyl)-2,2,2-trifluoroethyl)-8-hydroxy-7,9-dioxo-2,3,4,5,7,9,13,13a-octahydro-2,5-methanopyrido[1′,2′:4,5]pyrazino[2,1-b][1,3]oxazepine-10-carboxamide] | 11400 | – | 10 | 3 | – | –
O=C(NCc1ccc(F)cc1F)c1cn2c(c(O)c1=O)C(=O)N1C(C2)O[C@@H]2CCC[C@H]1C2 (stereo partly drawn) [Compound 8, (2R,6S)-N-(2,4-difluorobenzyl)-9-hydroxy-8,10-dioxo-3,4,5,6,8,10,14,14a-octahydro-2H-2,6-methanopyrido[1′,2′:4,5]pyrazino[2,1-b][1,3]oxazocine-11-carboxamide] | 13900 | – | – | 7 | – | MRT [1]: 1.8 h; clearance [1]: 8.3 mL/min/kg; Vd [1]: 0.87 L/kg
O=C(NCc1c(F)cc(F)cc1F)c1cn2c(c(O)c1=O)C(=O)N1[C@@H]3CC[C@@H](C3)O[C@H]1C2 [Compound 45, (13aS)-8-hydroxy-7,9-dioxo-N-(2,4,6-trifluorobenzyl)-2,3,4,5,7,9,13,13a-octahydro-2,5-methanopyrido[1′,2′:4,5]pyrazino[2,1-b][1,3]oxazepine-10-carboxamide] | – | 19 | – | – | 0.137 | CC50 at 5 days (in vitro; [3]): 15800 nM
O=C(NCc1ccc(F)cc1F)c1cn2c(c(O)c1=O)C(=O)N1C(C2)O[C@H]2CCC[C@@H]1C2 (stereo partly drawn) [Compound 7, (2S,6R)-N-(2,4-difluorobenzyl)-9-hydroxy-8,10-dioxo-3,4,5,6,8,10,14,14a-octahydro-2H-2,6-methanopyrido[1′,2′:4,5]pyrazino[2,1-b][1,3]oxazocine-11-carboxamide] | 15600 | – | – | 6 | – | MRT [1]: 2.3 h; clearance [1]: 8.5 mL/min/kg; Vd [1]: 1.2 L/kg

Source: patent publication US9663528B2, “Substituted 1,2,3,4,6,8,12,12a-octahydro-1,4-methanodipyrido[1,2-a:1',2'-d]pyrazines and methods for treating viral infections” (priority 2012, dated 2017)
